Assay results reported in paper PMC12473319, “TDMQ20 as A Drug Candidate for Wilson’s Disease: Comparison with D-Penicillamine, Trientine, and Tetrathiomolybdate In Vitro and In Mice” (Pharmaceutics, 2025).
Like-named read-outs stand apart in the source and are kept apart here.

Molecular target: T1, Cu,Zn-SOD (Cu,Zn-superoxide dismutase) (Bos taurus, UniProt P00442)
T1 construct: gene SOD1
Assay: SOD kit (xanthine/xanthine oxidase, WST-1 formazan at […] nm) after […] h pre-incubation with chelator
Format: biochemical

T1 sequence (P00442 2-152): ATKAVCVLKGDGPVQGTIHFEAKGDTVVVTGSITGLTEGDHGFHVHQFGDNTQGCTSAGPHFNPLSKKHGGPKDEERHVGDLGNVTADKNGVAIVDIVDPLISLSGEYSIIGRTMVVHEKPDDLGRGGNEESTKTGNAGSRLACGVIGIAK

Compound	IC50 (read-out: IC50)	IC50
CC(C)(S)[C@@H](N)C(=O)O [DPA, 3-mercapto-D-valine]	50 to 100 µM	
[S]=[Mo](=[S])([SH])[SH] [bcTTM, Bis-choline-tetrathiomolybdate]		< 0.2 µM
